Where two headings read alike, the source gives them in different places.

Experimental findings from patent US5665745A, “Heterocyclic compounds and their preparation and use” (Eli Lilly and Company, priority 1995, dated 1997) are described below.

Experiment [1] has as its target T1, muscarinic receptors (M1 -site, pirenzepine sensitive site) (Rattus norvegicus, UniProt P08482).
T1 construct: from tissue; host or cells: cerebral cortex membranes of male Wistar rats
T1 sequence (P08482 1-460): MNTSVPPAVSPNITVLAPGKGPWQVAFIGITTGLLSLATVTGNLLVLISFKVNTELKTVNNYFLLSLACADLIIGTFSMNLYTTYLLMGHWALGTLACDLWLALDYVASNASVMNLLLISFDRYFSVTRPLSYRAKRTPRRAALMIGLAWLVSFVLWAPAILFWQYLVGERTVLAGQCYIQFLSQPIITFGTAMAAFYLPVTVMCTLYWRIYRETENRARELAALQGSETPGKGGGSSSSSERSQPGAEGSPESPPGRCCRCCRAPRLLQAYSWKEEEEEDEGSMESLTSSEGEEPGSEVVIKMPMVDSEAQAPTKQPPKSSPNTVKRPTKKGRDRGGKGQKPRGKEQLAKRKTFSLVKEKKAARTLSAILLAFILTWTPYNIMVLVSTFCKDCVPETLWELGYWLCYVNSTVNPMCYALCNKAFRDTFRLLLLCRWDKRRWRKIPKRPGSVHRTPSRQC
In words: inhibition of ^3 HPRZ (pirenzepine, [N-methyl-^3 H]) binding to rat cerebral cortex membranes. Also noted: species or system rat (male Wistar. In outline:
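Male Wistar rat cortex membranes in 20 mM Hepes pH 7.4 were incubated with 1.0 nM (final) [3H]pirenzepine for 60 min at 20° C; nonspecific binding was defined with 1 μg/mL atropine. Filtration and scintillation counting were used, and IC50 was calculated from a single concentration assuming mass-action kinetics.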

Experiment [2] deals with muscarinic acetylcholine receptors. Put plainly: inhibition of specific binding of ^3 H-Oxotremorine-M (^3 H-Oxo). Also noted: species or system rat (male Wistar. The conditions noted are these: ^3 H-Oxotremorine 1.0 nM, rat cortex, 30 min. at 25° C. In outline:
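Rat cortex membranes (male Wistar) in 20 mM Hepes pH 7.4 incubated with 1.0 nM ^3H-Oxotremorine-M (final) and test compound for 30 min at 25 °C; arecoline defines non-specific binding. Bound radioactivity by filtration and scintillation counting; IC50 (nM) from a single concentration via Co/Cx mass-action formula, reflecting high- and medium-affinity sites.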

Where [3] appears, read: ^3 HPRZ 1.0 nM, rat cortex, 60 min. at 20° C., read-out: ^3 HPRZ IC50 (head from b208 on: Pir IC-50).

As for `C(=Cc1ccccc1)CSc1nsnc1OC1CN2CCC1CC2` (racemic) [Compound 149, (±)-3-(3-Phenyl-2-propenylthio)-4-(1-azabicyclo[2.2.2]octyl-3-oxy)-1,2,5-thiadiazole], the IC50 in experiment [1] is 30 nM; in experiment [2], 14 nM.
The like results for `O=C(CCSc1nsnc1OC1CN2CCC1CC2)c1ccc(F)cc1` (racemic) [Compound 150, (±)-3-(3-[4-Fluorophenyl]propan-3-onethio)-4-(1-azabicyclo[2,2.2]octyl-3-oxy)-1,2,5-thiadiazole] were, in that order, 36 nM and 17 nM.
On to `Clc1nsnc1O[C@@H]1CN2CCC[C@@H]1C2` (relative stereo) [Compound 47, (±)-exo-3-Chloro-4-(1-azabicyclo[3.2.1]octyl-6-oxy)-1,2,5thiadiazole], for which the IC50 was 23 nM in experiment [1] and 54 nM in experiment [2].
As to `Fc1ccc(OCCSc2nsnc2OC2CN3CCC2CC3)cc1` (racemic) [Compound 207, (±)-3-(2-[4-fluorophenoxy]ethylthio)-4-(1-azabicyclo[2.2.2]octyl-3-oxy)-1,2,5-thiadiazole], the half-maximal inhibitory concentration (IC50) in experiment [1] is 6 nM; in experiment [2], 2.4 nM.
As for `CCCCOc1nsnc1O[C@H]1C[C@@H]2CC[C@H]1N2` (relative stereo) [Compound 133, (±)-exo-3-Butyloxy-4-(7-azabicyclo[2.2.1]heptyl-3-oxy)-1,2,5-thiadiazole], the half-maximal inhibitory concentration (IC50) in experiment [1] (setting [3]) and in experiment [2] was over 1000 nM each time.
Regarding `CCCCSc1nsnc1OCC1CN2CCC1CC2` (racemic) [Compound 22, (±)-3-Butylthio-4-((1-azabicyclo[2.2.2]octan-3-yl)-methoxy)-1,2,5-thiadiazole], the IC50 turned out to be 7.4 nM in experiment [1] and 23 nM in experiment [2].
Take `CCCCOc1nsnc1OC1CN2CCC1CC2` (racemic) [Compound 8, (±)-3-Butyloxy-4-(1-azabicyclo[2.2.2]octyl-3-oxy)-1,2,5-thiadiazole]: the 50% inhibitory concentration (IC50) in experiment [1] is 7.4 nM; in experiment [2] it was 3.1 nM.
On to `C1CCC(CCCCOc2nsnc2O[C@@H]2CN3CCC[C@H]2C3)CC1` (relative stereo) [Compound 202, (±)-endo-3-(4-Cyclohexylbutoxy)-4-(1-azabicyclo[3.2.1]octyl-6-oxy)-1,2,5-thiadiazole], for which the IC50 in experiment [1] (setting [3]) was 31 nM; in experiment [2], 13 nM.
The like results for `CCCCSc1nsnc1OC1CNC1` [Compound 51, 3-Butylthio-4-(3-azetidinyloxy)-1,2,5-thiadiazole] were, in that order, 112 nM and 25 nM.
As for `C=CCCOc1nsnc1O[C@@H]1CN2CCC[C@H]1C2` (relative stereo) [Compound 184, (±)-endo-3-(3-Butenyloxy)-4-(1-azabicyclo[3.2.1]octyl-6-oxy)-1,2,5-thiadiazole], the values for the IC50 in experiment [1] (setting [3]) and in experiment [2] were 2.2 nM and 1.2 nM, respectively.
For `c1csc(-c2ccc(Sc3nsnc3OC3CN4CCC3CC4)s2)c1` (racemic) [Compound 57, (±)-3-(2-(5-(2-Thienyl)thienyl)thio)-4-(1-azabicyclo [2.2.2]octyl-3-oxy)-1,2,5-thiadiazole], the IC50 in experiment [1] is 37 nM; in experiment [2], 88 nM.
As to `CCCCOc1nsnc1O[C@@H]1CCC[C@H]1N(C)C` (racemic) [Compound 52, (±)-trans-3-Butyloxy-4-(2-dimethylaminocyclopentyloxy)-1,2,5-thiadiazole], the 50% inhibitory concentration (IC50) in experiment [1] (setting [3]) was 475 nM; in experiment [2], over 1000 nM.
The matching figures for `FCCCCOc1nsnc1OC1CN2CCC1CC2` (racemic) [Compound 117, (±)-3-(4-Fluorobutyloxy)-4-(1-azabicyclo[2.2.2]octyl-3-oxy)-1,2,5-thiadiazole]: 238 nM and 32 nM.
The like results for `FCCCOc1nsnc1OC1CN2CCC1CC2` (racemic) [Compound 123, (±)-3-(3-Fluoropropyloxy)-4-(1-azabicyclo[2.2.2]octyl-3-oxy)-1,2,5-thiadiazole] were, in that order, 106 nM and 42 nM.
The matching figures for `CC#CCCOc1nsnc1O[C@@H]1CN2CCC[C@H]1C2` (relative stereo) [Compound 175, (±)-endo-3-(3-Pentynyloxy)-4-(1-azabicyclo[3.2.1]octyl-6-oxy)-1,2,5-thiadiazole]: 2.7 nM and 0.74 nM.
Take `FC(F)(F)CCCOc1nsnc1OC1CC2CCC1NC2` (mixture of isomers) [Compound 160, (±)-exo-3-(4,4,4-Trifluorobutyloxy)-4-(2-azabicyclo[2.2.2]octyl-6-oxy)-1,2,5-thiadiazole]: the IC50 in experiment [1] (setting [3]) is 6.3 nM; in experiment [2], 14 nM.
Consider `C1=CC(Oc2nsnc2OC2CN3CCCC2C3)CCC1` (mixture of isomers) [Compound 174, (±)-endo-3-(2-Cyclohexenyloxy)-4-(1-azabicyclo[3.2.1]octyl-6-oxy)-1,2,5-thiadiazole], for which the IC50 in experiment [1] (setting [3]) worked out at 12 nM; in experiment [2], 2.1 nM.
For `C=CCCOc1nsnc1OC1CN2CCC1CC2` (racemic) [Compound 108, (±)-3-(3-Butenyloxy)-4-(1-azabicyclo[2.2.2]octyl-3-oxy)-1,2,5-thiadiazole], the half-inhibitory concentration (IC50) worked out at 56.1 nM in experiment [1] and 9.1 nM in experiment [2].
Regarding `CCCCSc1nsnc1OCCN(C)C` [Compound 144, 3-Butylthio-4-(2-dimethylaminoethoxy)-1,2,5-thiadiazole], the values for the IC50 in experiment [1] (setting [3]) and in experiment [2] were 9 nM and 12 nM, respectively.
The matching figures for `CCCCNc1nsnc1OC1CN2CCC1CC2` (racemic) [Compound 75, 3-(1-Butylamino)-4-[(+,-)-3-(azabicyclo[2.2.2]octyloxy)]-1,2,5-thiadiazole]: 128 nM and 65 nM.
For the compound `c1csc(Sc2nsnc2OC2CN3CCC2CC3)c1` (racemic) [Compound 60, (±)-3-(2-Thienyl)thio)-4-(1-azabicyclo[2.2.2]octyl-3-oxy)-1,2,5-thiadiazole], the results for the IC50 in experiment [1] and in experiment [2] were 14 nM and 19 nM, respectively.
Turning to `CCCCSc1nsnc1OC1CCCN2CCCC12` (mixture of isomers) [Compound 142, (±)-cis-3-Butylthio-4-(1-azabicyclo[4.3.0]nonyl-5-oxy)-1,2,5-thiadiazole], the IC50 worked out at 74 nM in experiment [1] (setting [3]) and 38 nM in experiment [2].
As to `N#Cc1ccc(CSc2nsnc2OC2CN3CCC2CC3)cc1` (racemic) [Compound 41, (±)-3-(4-Cyanobenzylthio)-4-(1-azabicyclo[2.2.2]octyl-3-oxy)-1,2,5-thiadiazole], the IC50 in experiment [1] is 19 nM; in experiment [2], 25 nM.
Turning to `Fc1ccc(COc2nsnc2O[C@@H]2CN3CCC[C@H]2C3)cc1` (relative stereo) [Compound 194, (±)-endo-3-(4-Fluorobenzyloxy)-4-(1-azabicyclo[3.2.1]octyl-6-oxy)-1,2,5-thiadiazole], the IC50 in experiment [1] (setting [3]) was found to be 4 nM; in experiment [2], 2.1 nM.
In the case of `CCCCCCOc1nsnc1OC1CN2CCC1CC2` (racemic) [Compound 10, (±)-3-Hexyloxy-4-(1-azabicyclo[2.2,2]octyl-3-oxy)-1,2,5-thiadiazole], the half-inhibitory concentration (IC50) in experiment [1] was found to be 22 nM; in experiment [2] it was 6.1 nM.
The matching figures for `CCOc1nsnc1OC1CN2CCC1CC2` (racemic) [Compound 6, (±)-3-Ethoxy-4-(1-azabicyclo[2.2.2]octyl-3-oxy)-1,2,5-thiadiazole]: 32 nM and 17 nM.
For `CCCCSc1nsnc1O[C@@H]1CNC[C@H]1O` (relative stereo) [Compound 146, (±)-trans-3-Butylthio-4-(4-hydroxy-pyrollidin-3-oxy)-1,2,5-thiadiazole], the IC50 was over 1000 nM in experiment [1] (setting [3]) and 775 nM in experiment [2].
Take `C1CC1COc1nsnc1OC1CN2CCC1CC2` (racemic) [Compound 106, (±)-3-(Cyclopropylmethoxy)-4-(1-azabicyclo[2.2.2]octyl-3-oxy)-1,2,5-thiadiazole]: the half-inhibitory concentration (IC50) in experiment [1] is 95.4 nM; in experiment [2] it was 9.5 nM.
Regarding `C#CCCOc1nsnc1O[C@@H]1CN2CCC[C@H]1C2` (relative stereo) [Compound 186, (±)-endo-3-(3-Butynyloxy)-4-(1-azabicyclo[3.2.1]octyl-6-oxy)-1,2,5-thiadiazole], the IC50 in experiment [1] (setting [3]) worked out at 2.8 nM; in experiment [2] it was 0.59 nM.
The like results for `c1csc(COc2nsnc2O[C@@H]2CN3CCC[C@H]2C3)c1` (relative stereo) [Compound 173, (±)-endo-3-(2-Thienylmethoxy)-4-(1-azabicyclo[3.2.1]octyl-6-oxy)-1,2,5-thiadiazole] were, in that order, 1.4 nM and 1 nM.
Turning to `c1csc(SCCSc2nsnc2OC2CN3CCC2CC3)c1` (racemic) [Compound 19, (±)-3-(2-(2-Thienylthio)ethylthio)-4-(1-azabicyclo-[2.2.2]octyl-3-oxy)-1,2,5-thiadiazole], the values for the IC50 in experiment [1] and in experiment [2] were 7.5 nM and 0.36 nM, respectively.
